Source: patent US6458811B1, “Benzothiophenes formulations containing same and methods” (Eli Lilly and Company, priority 1996, dated 2002)
Where a name gives a salt, the structure may show the parent alone. Values belong to the molecule of their own block, whether it stands above or below them.

Assays:
[1] = Particle size distribution by laser light diffraction (Horiba LA900); format: physicochemical; settings: hydrochloride
Protocol: In preparing the particulate compound of the invention a compound of formula I, in its raw state, is first characterized for size using an instrument adapted to measure equivalent spherical volume diameter, that is to say a Horiba LA900 Laser Scattering Particle Size Distribution Analyzer or equivalent instrument.
Sample is added to the dispersant until an acceptable level of laser light obscuration achieved at which point the particle size distribution is measured. […] The dispersant solution was filtered through a 0.2 micron microporous membrane filter to provide the necessary particle-free suspending dispersant.
Within five minutes of the preparation of the dispersion, triplicate particle size measurements were performed. Triplicate measurements are effected as a minimum check a) to produce more reliable measurements and b) to check the equivalent sampling of the suspended material has been reproducible i.e., the suspension has not settled.
From this, the mean equivalent spherical volume diameter value was derived (50% undersize value) together with the standard deviation of the distribution calculated as above.

[2] = Surface area by nitrogen adsorption (BET); format: physicochemical; settings: bulk lot
[3] = Dissolution of bulk lots handfilled into capsules, 0.1% aqueous polysorbate 80, USP Apparatus II; format: physicochemical; settings: hydrochloride; for % Dissolved: 60.0 mg in capsule; for % Dissolved at 10 Minutes: Table 8, 10 minutes; for % Dissolved at 30 Minutes: Table 8, 30 minutes
Protocol: Data was collected at 10, 20, 30 and 45 minutes to produce a dissolution profile.

[4] = Plasma AUC of unconjugated raloxifene in rats dosed in diet; format: in vivo, Fischer 344 rats; settings: 0.4% w/w in diet for seven days, hydrochloride
Protocol: In an attempt to evaluate these differences upon in vivo absorption, a study was conducted in Fischer 344 rats.

MCF-7 cells = MCF-7 cells in cell culture; cited from earlier work
[5] = tested on: uterotrophic response to estrogen; settings: immature rats, versus tamoxifen; cited from earlier work
uterotrophic response = settings: OVX rats; cited from earlier work

Structure (SMILES): O=C(c1ccc(OCCN2CCCCC2)cc1)c1c(-c2ccc(O)cc2)sc2cc(O)ccc12 [Lot #3, raloxifene hydrochloride]
mean particle size ([1]; as restated): 23.3 microns
90% less than ([1]; bulk lots of Table 6, Ball Milled bulk lot): 55.3 μm
90% less than ([1]; bulk lots of Table 6, Slurry Milled bulk lot): 89 μm
Surface Area ([2]; hydrochloride): 2.10 m^2/gm
% Dissolved ([3]; 10 min): 31%
% Dissolved ([3]; 20 min): 45%
% Dissolved ([3]; 30 min): 54%
% Dissolved ([3]; 45 min): 64%
% Dissolved at 10 Minutes [3]: 31%
% Dissolved at 30 Minutes [3]: 55%
AUC [4]: 5743 ng·h/mL

Structure (SMILES): O=C(c1ccc(OCCN2CCCCC2)cc1)c1c(-c2ccc(O)cc2)sc2cc(O)ccc12 [Lot #4, raloxifene hydrochloride]
% Dissolved ([3]; 10 min): 15%
% Dissolved ([3]; 20 min): 27%
% Dissolved ([3]; 30 min): 35%
% Dissolved ([3]; 45 min): 49%
% Dissolved at 10 Minutes [3]: 15%
% Dissolved at 30 Minutes [3]: 35%
AUC [4]: 3329 ng·h/mL

Structure (SMILES): O=C(c1ccc(OCCN2CCCCC2)cc1)c1c(-c2ccc(O)cc2)sc2cc(O)ccc12 [Raloxifene, 6-hydroxy-2-(4-hydroxyphenyl)-3-[4-(2-piperidinoethoxy)benzoyl]benzo[b]-thiophene]
inhibition of estrogen-dependent proliferation (MCF-7 cells): inhibits estrogen-dependent proliferation
antagonism of the uterotrophic response to estrogen [5]: more effective than tamoxifen
uterotrophic response (uterotrophic response): only minimal uterotrophic response that was not dose-dependent

Results, then the molecule that gave them:

mean particle size ([1]; as restated): 8.4 microns
90% less than ([1]; bulk lots of Table 6): 13.9 μm
mean particle size ([1]; bulk lots of Table 6): 8.4 μm
Surface Area ([2]; listed as #2, hydrochloride): 2.28 m^2/gm
Surface Area ([2]; listed as lot #2, hydrochloride): 2.28 m^2/gm
% Dissolved ([3]; 10 min): 41%
% Dissolved ([3]; 20 min): 60%
% Dissolved ([3]; 30 min): 68%
% Dissolved ([3]; 45 min): 74%
% Dissolved at 10 Minutes [3]: 41%
% Dissolved at 30 Minutes [3]: 68%
AUC [4]: 8037 ng·h/mL
Structure (SMILES): O=C(c1ccc(OCCN2CCCCC2)cc1)c1c(-c2ccc(O)cc2)sc2cc(O)ccc12 [Lot #2, raloxifene hydrochloride]

90% less than ([1]; bulk lots of Table 6): 6.8 μm
mean particle size ([1]; bulk lots of Table 6): 3.9 μm
Surface Area ([2]; hydrochloride): 6.09 m^2/gm
% Dissolved ([3]; 10 min): 51%
% Dissolved ([3]; 20 min): 68%
% Dissolved ([3]; 30 min): 78%
% Dissolved ([3]; 45 min): 88%
% Dissolved at 10 Minutes [3]: 50%
% Dissolved at 30 Minutes [3]: 78%
AUC [4]: 10056 ng·h/mL
Structure (SMILES): O=C(c1ccc(OCCN2CCCCC2)cc1)c1c(-c2ccc(O)cc2)sc2cc(O)ccc12 [Lot #1, raloxifene hydrochloride]
